Source: US5149859A, “Naphthalene derivatives” (Teijin Limited, priority 1989, dated 1992)
Where two headings read alike, the source gives them in different places.

Columns and labels:
Assay type in all cases: cell-based
lipoxygenase [1] = target: T1, lipoxygenase (Homo sapiens, UniProt P09917); assay: Activity of inhibiting lipoxygenase production in human whole blood (Table 3-1); conditions: 0.25 h, final 10^-5 M, A23187 25 μM, 37° C.
T1 construct: heparin-treated vein blood of a healthy person without administration of a drug; from tissue; host or cells: human heparinised venous whole blood
T1 sequence (P09917 1-674): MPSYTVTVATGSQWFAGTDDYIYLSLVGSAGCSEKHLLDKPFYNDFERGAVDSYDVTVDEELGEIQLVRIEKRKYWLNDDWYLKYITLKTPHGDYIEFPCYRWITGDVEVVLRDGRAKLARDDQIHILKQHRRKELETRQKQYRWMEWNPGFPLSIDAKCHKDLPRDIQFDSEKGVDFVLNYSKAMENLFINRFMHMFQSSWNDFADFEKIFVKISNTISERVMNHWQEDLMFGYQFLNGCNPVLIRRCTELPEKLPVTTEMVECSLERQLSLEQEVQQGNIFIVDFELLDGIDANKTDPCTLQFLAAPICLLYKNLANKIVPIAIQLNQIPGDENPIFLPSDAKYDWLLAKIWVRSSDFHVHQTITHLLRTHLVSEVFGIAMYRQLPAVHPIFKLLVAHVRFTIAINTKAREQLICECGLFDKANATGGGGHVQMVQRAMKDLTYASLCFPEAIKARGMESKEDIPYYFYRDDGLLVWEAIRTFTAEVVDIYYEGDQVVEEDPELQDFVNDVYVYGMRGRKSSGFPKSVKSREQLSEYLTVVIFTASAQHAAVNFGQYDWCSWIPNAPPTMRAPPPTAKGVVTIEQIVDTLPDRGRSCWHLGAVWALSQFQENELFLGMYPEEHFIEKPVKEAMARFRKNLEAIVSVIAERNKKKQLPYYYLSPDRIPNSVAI
Experimental: Evaluation of activity of inhibiting lipoxygenase production in human whole blood
Into 1 ml of a heparin-treated vein blood of a healthy person without administration of a drug was added 1 μl of the DMSO solution of each compound listed in Table 3-1 (final 10^-5 M). After treatment at 37° C. for 5 minutes, 5 μl of a DMSO solution of calcium ionophone (A23187, 25 μM) was added to carry out the treatment at 37° C. for 15 minutes, followed by ice-cooling. As the internal standard substance for quantitation, 10 μl of a DMSO solution of 100 ng of 15-HETE was added, then 0.8 ml of acetonitrile was added, and the precipitates formed were removed by centrifugation. LTB4, 5-HETE in the supernatant were separated and quantitated, and the results are shown as the production inhibitory ratio of LTB4, etc. in Table 3-1.

lipoxygenase [2] = assay: Activity of inhibiting lipoxygenase production in human whole blood (Table 1-1); conditions: A23187 25 μM, 15 min
Experimental: Evaluation of activity of inhibiting lipoxygenase production in human whole blood Into 2 ml of a heparin-treated vein blood of a healthy person without administration of a drug was added 2 μl of the DMSO solution containing the test sample of the sulfide ketone derivative listed in Table 1-1 as the drug to be tested (final 10^-5 M). After treatment at 37° C. for 5 minutes, 10 μl of a DMSO solution of A23187 was added (final 25 μM) to carry out the treatment at 37° C. for 15 minutes, followed by ice-cooling. As the internal standard substance for quantitation, 10 μl of a DMSO solution of 100 ng of 15-HETE was added, and then 0.8 ml of acetonitrile was added and the precipitates formed were removed by centrifugation. LTB4, 5-HETE, 12-HETE in the supernatant were separated and quantitated. The results are shown in Table 1-1 as the lipoxygenase production inhibitory ratio. | *For only this compound, the results are shown in "× 10^-4

lipoxygenase [3] = target: T2, lipoxygenase (Rattus norvegicus, UniProt P12527); assay: Activity of inhibiting lipoxygenase production in basophilic leukemia (RBL-1) cells (Table 3-2); conditions: 0.25 h, arachidonic acid 50 μg, A23187 25 μM, read-out: Inhibitory ratio (%) LTB4; for inhibition at 1 µM: 10^-6 M; for inhibition at 0.1 µM: 10^-7 M
T2 construct: A 5×10^6 amount cells of RBL-1 were used; endogenous in cells; host or cells: RBL-1 (basophilic leukemia cells)
T2 sequence (P12527 1-673): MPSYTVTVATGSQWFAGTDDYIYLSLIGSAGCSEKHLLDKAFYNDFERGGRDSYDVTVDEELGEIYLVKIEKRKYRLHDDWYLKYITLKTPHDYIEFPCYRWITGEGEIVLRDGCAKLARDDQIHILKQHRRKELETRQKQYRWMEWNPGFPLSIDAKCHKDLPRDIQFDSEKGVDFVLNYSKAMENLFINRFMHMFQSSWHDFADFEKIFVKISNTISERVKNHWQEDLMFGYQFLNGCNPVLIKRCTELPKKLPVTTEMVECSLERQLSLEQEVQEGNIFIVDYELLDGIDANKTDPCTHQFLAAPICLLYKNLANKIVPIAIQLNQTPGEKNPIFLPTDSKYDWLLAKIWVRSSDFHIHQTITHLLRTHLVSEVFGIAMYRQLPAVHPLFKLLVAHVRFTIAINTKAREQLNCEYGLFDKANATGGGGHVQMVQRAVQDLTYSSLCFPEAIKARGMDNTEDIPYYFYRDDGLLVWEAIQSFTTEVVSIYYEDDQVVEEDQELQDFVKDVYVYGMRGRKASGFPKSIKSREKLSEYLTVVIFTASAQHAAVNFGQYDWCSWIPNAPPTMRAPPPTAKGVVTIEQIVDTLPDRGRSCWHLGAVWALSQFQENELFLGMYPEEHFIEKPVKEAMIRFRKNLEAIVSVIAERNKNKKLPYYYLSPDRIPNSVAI
Experimental: Evaluation of activity of inhibiting lipoxygenase production […] (RBL-1) cells
A 5×10^6 amount cells of RBL-1 were used and the DMSO solution of each compound listed in Table 3-2 was added thereto so that the final concentration was obtained. After incubation at 37° C. for 5 minutes, 50 μg of arachidonic acid and 25 μM of calcium ionophore (A23187) were added thereto, followed by incubating at 37° C. for 15 minutes. The extraction was carried out after the reaction was completed. The product was determined by reversed phase HPLC.

lipoxygenase [4] = assay: Activity of inhibiting lipoxygenase production in human whole blood (Table 2-1); conditions: final 10^-4 M, 37° C., 15 min, 100 µM; for Inhibitory ratio (%) 12-HETE: A23187 25 μM; for Inhibitory ratio (%) 5-HETE / Inhibitory ratio (%) LTB4: A23187 25 μm
Experimental: Evaluation of activity of inhibiting lipoxycenase production in human whole blood Into 2 ml of a heparin-treated vein blood of a healthy person without administration of a drug was added 2 μl of the DMSO solution of each compound listed in Table 2-1 (final 10^-4 M). After treatment at 37° C. for 5 minutes, 10 μl of a DMSO solution of A23187 was added (final 25 μm) to carry out the treatment at 37° C. for 15 minutes, followed by ice-cooling. As the internal standard substance for quantitation, 10 μl of a DMSO solution of 100 ng of 15-HETE was added, and then 0.8 ml of acetonitrile was added and the precipitates formed were removed by centrifugation. LTB4, 5-HETE, 12-HETE in the supernatant were separated and quantitated. The results are shown in Table 2-1 as a production inhibitory ratio of LTB4.

[5] = read-out: Inhibitory ratio (%) 5-HETE
[6] = read-out: Inhibitory ratio (%) LTB4
[7] = footnote: results shown in × 10^-4 (only this compound)

COC(=O)CCCCC(=O)N(O)c1ccc2ccccc2c1O [Example 3-4, N-hydroxy-N-(1-hydroxy-2-naphthyl)-5-methoxycarbonylpentanamide]
inhibition at 10 µM (lipoxygenase [1]; [5]): 38% | inhibition at 10 µM (lipoxygenase [1]; [6]): 45%

COC(=O)CCC(CSc1ccc2cc(O)ccc2c1)=NO [Example 1-11, methyl 5-(6-hydroxy-2-naphthylthio)-4-hydroxyiminopentanoate]
Inhibitory ratio (%) 5-HETE (lipoxygenase [2]; final 10^-5 M, 37° C., 10 µM): 56% | Inhibitory ratio (%) 12-HETE (lipoxygenase [2]; final 10^-5 M, 37° C., 10 µM): 28% | Inhibitory ratio (%) LTB4 (lipoxygenase [2]; final 10^-5 M, 37° C., 10 µM): 64%

O=C(O)CCCC(=O)N(O)c1ccc2ccccc2c1O [Example 3-3, N-hydroxy-N-(1-hydroxy-2-naphthyl)-4-carboxybutanamide]
inhibition at 1 µM (lipoxygenase [3]): 35% | inhibition at 0.1 µM (lipoxygenase [3]): 20%

COC(=O)CCCC(=NO)C(=O)c1ccc2cc(O)ccc2c1 [Example 2-9, methyl 6-(6-hydroxy-2-naphthyl)-5-hydroxvimino-6-oxohexanoate]
Inhibitory ratio (%) 12-HETE (lipoxygenase [4]): 27% | Inhibitory ratio (%) 5-HETE (lipoxygenase [4]): 77% | Inhibitory ratio (%) LTB4 (lipoxygenase [4]): 66%

COC(=O)CCCC(=O)N(O)Cc1ccc2ccccc2c1 [Example 3-8, N-hydroxy-N-(2-naphthylmethyl)-4methoxycarbonylbutanamide]
inhibition at 10 µM (lipoxygenase [1]; [5]): 59% | inhibition at 10 µM (lipoxygenase [1]; [6]): 60%

COC(=O)CCCCCC(=O)N(O)c1ccc2ccccc2c1O [Example 3-5, N-hydroxy-N-(1-hydroxy-2-naphthyl)-6-methoxycarbonylhexanamide]
inhibition at 10 µM (lipoxygenase [1]; [5]): 40% | inhibition at 10 µM (lipoxygenase [1]; [6]): 39%

COC(=O)c1cccc(C(=O)N(O)c2ccc3ccccc3c2O)c1 [Example 3-10, N-hydroxy-N-(1-hydroxy-2-naphthyl)-3-methoxycarbonylbenzamide]
inhibition at 10 µM (lipoxygenase [1]; [5]): 45% | inhibition at 10 µM (lipoxygenase [1]; [6]): 63%

COC(=O)CCCC(Sc1ccc2cc(OC)ccc2c1)C(C)=NO (stereo not drawn) [Example 1-4]
Inhibitory ratio (%) 5-HETE (lipoxygenase [2]; [7]): 43% | Inhibitory ratio (%) 12-HETE (lipoxygenase [2]; [7]): 29%

COC(=O)COCC(=O)N(O)c1ccc2ccccc2c1O [Example 3-6, N-hydroxy-N-(1-hydroxy-2-naphthyl)-4-methoxycarbonyl-3-oxabutanamide]
inhibition at 10 µM (lipoxygenase [1]; [5]): 18% | inhibition at 10 µM (lipoxygenase [1]; [6]): 24%

COC(=O)CCCC(=NO)C(=NO)c1ccc2cc(O)ccc2c1 [Example 2-5, methyl 6-(6-hydroxy-2-naphthyl)-5,6-dihydroxyiminohexanoate]
Inhibitory ratio (%) 12-HETE (lipoxygenase [4]): 4% | Inhibitory ratio (%) 5-HETE (lipoxygenase [4]): 78% | Inhibitory ratio (%) LTB4 (lipoxygenase [4]): 93%

COC(=O)CCCC(=O)CSc1ccc2cc(O)ccc2c1 [Example 1-12, methyl 6-(6-hydroxy-2-naphthylthio)-5-oxohexanoate]
Inhibitory ratio (%) 5-HETE (lipoxygenase [2]; final 10^-5 M, 37° C., 10 µM): 6% | Inhibitory ratio (%) 12-HETE (lipoxygenase [2]; final 10^-5 M, 37° C., 10 µM): 17% | Inhibitory ratio (%) LTB4 (lipoxygenase [2]; final 10^-5 M, 37° C., 10 µM): 2% | inhibition at 1 µM (lipoxygenase [3]): 53% | inhibition at 0.1 µM (lipoxygenase [3]): 27% | inhibition at 0.01 µM (lipoxygenase [3]; 10^-8 M): 28%

COC(=O)CCCC(=O)C(=O)c1ccc2cc(O)ccc2c1 [Example 2-4, methyl 6-(6-hyerocy-2-naphthyl)-5,6-dioxohexanoate]
Inhibitory ratio (%) 12-HETE (lipoxygenase [4]): 3% | Inhibitory ratio (%) 5-HETE (lipoxygenase [4]): 81% | Inhibitory ratio (%) LTB4 (lipoxygenase [4]): 78%

COC(=O)CCC(=O)N(O)Cc1ccc2ccccc2c1 [Example 3-7, N-hydroxy-N-(2-naphthylmethyl)-3-methoxycarbonylpropionamide]
inhibition at 10 µM (lipoxygenase [1]; [5]): 59% | inhibition at 10 µM (lipoxygenase [1]; [6]): 71%

COC(=O)CCCC(=O)N(O)c1ccc2ccccc2c1O [Example 3-2, N-hydroxy-N-(1-hydroxy-2-naphthyl)-4-methoxycarbonylbutanamide]
inhibition at 10 µM (lipoxygenase [1]; [5]): 80%

CON=C(CSc1ccc2cc(OC)ccc2c1)CC(=O)OC [Example 1-6, methyl 4-(6-methoxy-2-naphthylthio)-3-methoxyiminobutanoate]
Inhibitory ratio (%) 5-HETE (lipoxygenase [2]; final 10^-5 M, 37° C., 10 µM): 29% | Inhibitory ratio (%) LTB4 (lipoxygenase [2]; final 10^-5 M, 37° C., 10 µM): 37%

COC(=O)CCCC(=O)N(O)Cc1ccc2ccccc2c1OC [Example 3-9, N-hydroxy-N-(1-methoxy-2-naphthylmethyl)-4-methoxycarbonylbutanamide]
inhibition at 10 µM (lipoxygenase [1]; [5]): 27% | inhibition at 10 µM (lipoxygenase [1]; [6]): 40%

O=C(O)CCCC(=O)CSc1ccc2cc(O)ccc2c1 [Example 1-14, 6-(6-hydroxy-2-naphthylthio)-5-oxohexanoic acid]
Inhibitory ratio (%) 5-HETE (lipoxygenase [2]; final 10^-5 M, 37° C., 10 µM): 49% | Inhibitory ratio (%) 12-HETE (lipoxygenase [2]; final 10^-5 M, 37° C., 10 µM): 20% | Inhibitory ratio (%) LTB4 (lipoxygenase [2]; final 10^-5 M, 37° C., 10 µM): 37%
